In the supplement of paper PMC4380931:
± gives the standard deviation of the averaged measurements.

Columns and labels:
Assay in all cases: relative viability (cell count relative to DMSO-treated control) (fraction of DMSO control); higher = more viable cells / less drug effect
[1] = tested on: COLO858
Experimental: (§1)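 BRAF V600E/D melanoma cell lines were seeded in 96-well plates, treated in 4 replicates with seven doses (3.16 nM to 3.16 uM) of RAF/MEK inhibitors for 24, 48 or 72 h, and stained with Hoechst 33342 (nuclei) and DEVD-NucView488 caspase-3 substrate. Plates were imaged on an Operetta. Relative viability is the cell count normalised to a DMSO-treated control; apoptosis fraction is the fraction of NucView488-positive nuclei.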

[2] = tested on: LOXIMVI; conditions: 24 h
Experimental: as §1

[3] = tested on: MMACSF
Experimental: as §1

[4] = tested on: RVH421
Experimental: as §1

[5] = tested on: SKMEL28
Experimental: as §1

[6] = tested on: WM1552C
Experimental: as §1

CCCS(=O)(=O)Nc1ccc(F)c(C(=O)c2c[nH]c3ncc(Cl)cc23)c1F [PLX4720]
relative viability
Conditions | 0.00316 µM | 0.01 µM | 0.0316 µM | 0.1 µM | 0.316 µM | 1 µM | 3.16 µM
[1], 24 h | 1.03 ± 0.41 | 1.15 ± 0.34 | 1.21 ± 0.32 | 1.17 ± 0.34 | 1.02 ± 0.32 | 0.946 ± 0.29 | 0.808 ± 0.25
[1], 48 h | 0.968 ± 0.038 | 1.07 ± 0.073 | 1.06 ± 0.056 | 0.893 ± 0.067 | 0.538 ± 0.027 | 0.407 ± 0.03 | 0.306 ± 0.02
[1], 72 h | 1.13 ± 0.12 | 1.2 ± 0.1 | 1.19 ± 0.08 | 0.893 ± 0.1 | 0.569 ± 0.083 | 0.417 ± 0.05 | 0.273 ± 0.039
[3], 24 h | 1.02 ± 0.075 | 0.9436 ± 0.0022 | 0.974 ± 0.11 | 1.04 ± 0.069 | 0.991 ± 0.0027 | 1.02 ± 0.028 | 1.06 ± 0.036
[3], 48 h | 0.92 ± 0.073 | 1.02 ± 0.087 | 1.01 ± 0.025 | 1.01 ± 0.06 | 0.854 ± 0.067 | 0.764 ± 0.036 | 0.679 ± 0.053
[3], 72 h | 0.937 ± 0.068 | 0.923 ± 0.025 | 0.86 ± 0.021 | 0.632 ± 0.014 | 0.531 ± 0.026 | 0.336 ± 0.014 | 0.146 ± 0.0097
[4], 24 h | 0.932 ± 0.085 | 1.01 ± 0.054 | 0.9915 ± 0.0077 | 1.05 ± 0.12 | 1.054 ± 0.0016 | 0.981 ± 0.034 | 0.909 ± 0.026
[4], 48 h | 1.03 ± 0.086 | 0.881 ± 0.11 | 0.948 ± 0.1 | 0.939 ± 0.12 | 0.732 ± 0.018 | 0.673 ± 0.03 | 0.541 ± 0.04
[4], 72 h | 0.978 ± 0.034 | 1.03 ± 0.022 | 1.01 ± 0.059 | 0.89 ± 0.058 | 0.678 ± 0.059 | 0.569 ± 0.053 | 0.483 ± 0.017
[5], 48 h | 0.824 ± 0.12 | 1.43 ± 0.12 | 1.48 ± 0.17 | 1.42 ± 0.17 | 1.12 ± 0.13 | 0.941 ± 0.015 | 0.61 ± 0.027
[5], 72 h | 0.973 ± 0.083 | 0.881 ± 0.096 | 0.968 ± 0.086 | 0.866 ± 0.062 | 0.598 ± 0.044 | 0.458 ± 0.037 | 0.389 ± 0.035
[6], 24 h | 1.02 ± 0.016 | 1.05 ± 0.03 | 1.031 ± 0.0017 | 1.08 ± 0.011 | 1.02 ± 0.021 | 1.064 ± 0.0044 | 0.9942 ± 0.0011
[6], 48 h | 0.976 ± 0.064 | 0.994 ± 0.048 | 1.01 ± 0.066 | 0.977 ± 0.013 | 0.839 ± 0.15 | 0.795 ± 0.06 | 0.723 ± 0.027
[6], 72 h | 1.04 ± 0.11 | 1.13 ± 0.13 | 1.13 ± 0.15 | 1.03 ± 0.15 | 0.83 ± 0.096 | 0.576 ± 0.052 | 0.497 ± 0.048

[2]
Conditions | relative viability
0.00316 µM | 0.917 ± 0.1
0.01 µM | 0.969 ± 0.2
0.0316 µM | 1.03 ± 0.14
0.1 µM | 1.1 ± 0.098
0.316 µM | 1.05 ± 0.1
1 µM | 1.04 ± 0.11
3.16 µM | 0.913 ± 0.15

Cn1cnc2c(F)c(Nc3ccc(Br)cc3Cl)c(C(=O)NOCCO)cc21 [Selumetinib]
relative viability
Conditions | 0.00316 µM | 0.01 µM | 0.0316 µM | 0.1 µM | 0.316 µM | 1 µM | 3.16 µM
[1], 24 h | 0.844 ± 0.41 | 1.09 ± 0.26 | 1.24 ± 0.37 | 1.12 ± 0.3 | 1.01 ± 0.29 | 0.937 ± 0.25 | 0.856 ± 0.27
[1], 48 h | 0.983 ± 0.024 | 1.05 ± 0.024 | 1.06 ± 0.043 | 0.702 ± 0.056 | 0.455 ± 0.011 | 0.374 ± 0.014 | 0.315 ± 0.0075
[1], 72 h | 0.974 ± 0.046 | 1.05 ± 0.11 | 0.843 ± 0.16 | 0.545 ± 0.077 | 0.427 ± 0.065 | 0.342 ± 0.041 | 0.28 ± 0.021
[3], 24 h | 1.11 ± 0.026 | 1.02 ± 0.045 | 1.022 ± 0.0064 | 1.05 ± 0.027 | 0.989 ± 0.045 | 1.04 ± 0.026 | 1.06 ± 0.017
[3], 48 h | 0.907 ± 0.063 | 1.01 ± 0.048 | 0.88 ± 0.046 | 0.743 ± 0.06 | 0.748 ± 0.043 | 0.664 ± 0.039 | 0.533 ± 0.03
[3], 72 h | 0.924 ± 0.056 | 0.759 ± 0.066 | 0.563 ± 0.054 | 0.449 ± 0.054 | 0.344 ± 0.032 | 0.21 ± 0.017 | 0.141 ± 0.01
[4], 24 h | 0.975 ± 0.047 | 0.995 ± 0.019 | 1.032 ± 0.0097 | 1.03 ± 0.022 | 1.09 ± 0.012 | 1.02 | 0.919 ± 0.093
[4], 48 h | 1.04 ± 0.058 | 0.884 ± 0.11 | 0.795 ± 0.06 | 0.721 ± 0.05 | 0.659 ± 0.049 | 0.658 ± 0.025 | 0.593 ± 0.008
[4], 72 h | 1.01 ± 0.058 | 0.988 ± 0.08 | 0.849 ± 0.11 | 0.657 ± 0.071 | 0.566 ± 0.067 | 0.511 ± 0.062 | 0.488 ± 0.041
[5], 48 h | 0.799 ± 0.12 | 1.31 ± 0.097 | 1.43 ± 0.17 | 1.12 ± 0.1 | 0.964 ± 0.071 | 0.852 ± 0.06 | 0.604 ± 0.037
[5], 72 h | 1.06 ± 0.16 | 0.975 ± 0.23 | 0.804 ± 0.16 | 0.543 ± 0.038 | 0.449 ± 0.064 | 0.419 ± 0.066 | 0.337 ± 0.056
[6], 24 h | 0.97 ± 0.012 | 0.993 ± 0.024 | 1.0822 ± 0.00085 | 1.07 ± 0.0091 | 1.03 ± 0.016 | 1.06 ± 0.022 | 0.947 ± 0.033
[6], 48 h | 0.947 ± 0.041 | 0.992 ± 0.035 | 0.956 ± 0.025 | 0.867 ± 0.032 | 0.761 ± 0.04 | 0.676 ± 0.024 | 0.677 ± 0.034
[6], 72 h | 0.862 ± 0.19 | 0.918 ± 0.12 | 0.806 ± 0.092 | 0.635 ± 0.084 | 0.526 ± 0.023 | 0.44 ± 0.038 | 0.411 ± 0.057

[2]
Conditions | relative viability
0.00316 µM | 0.937 ± 0.096
0.01 µM | 0.976 ± 0.2
0.0316 µM | 1.02 ± 0.11
0.1 µM | 1.07 ± 0.12
0.316 µM | 0.98 ± 0.16
1 µM | 1 ± 0.14
3.16 µM | 0.913 ± 0.095

CCCS(=O)(=O)Nc1ccc(F)c(C(=O)c2c[nH]c3ncc(-c4ccc(Cl)cc4)cc23)c1F [Vemurafenib]
relative viability
Conditions | 0.00316 µM | 0.01 µM | 0.0316 µM | 0.1 µM | 0.316 µM | 1 µM | 3.16 µM
[1], 24 h | 0.782 ± 0.35 | 1.02 ± 0.43 | 1.05 ± 0.37 | 0.988 ± 0.35 | 0.916 ± 0.3 | 0.824 ± 0.31 | 0.703 ± 0.24
[1], 48 h | 0.926 ± 0.045 | 1.02 ± 0.07 | 1 ± 0.043 | 0.933 ± 0.081 | 0.574 ± 0.077 | 0.362 ± 0.04 | 0.215 ± 0.016
[1], 72 h | 1.21 ± 0.055 | 1.18 ± 0.19 | 1.31 ± 0.063 | 1.15 ± 0.13 | 0.68 ± 0.076 | 0.393 ± 0.052 | 0.127 ± 0.018
[3], 24 h | 0.923 ± 0.051 | 0.887 ± 0.072 | 0.976 ± 0.022 | 1 ± 0.028 | 0.89 ± 0.14 | 0.9218 ± 0.00054 | 0.905 ± 0.16
[3], 48 h | 0.908 ± 0.064 | 0.923 ± 0.11 | 0.962 ± 0.087 | 1 ± 0.071 | 0.85 ± 0.05 | 0.713 ± 0.06 | 0.604 ± 0.07
[3], 72 h | 0.957 ± 0.018 | 0.941 ± 0.04 | 0.939 ± 0.018 | 0.697 ± 0.026 | 0.56 ± 0.03 | 0.29 ± 0.022 | 0.0882 ± 0.021
[4], 24 h | 0.8497 ± 0.0046 | 0.936 ± 0.064 | 0.993 ± 0.11 | 1 ± 0.063 | 1.07 ± 0.075 | 1.04 ± 0.043 | 0.823 ± 0.03
[4], 48 h | 1.02 ± 0.13 | 0.907 ± 0.079 | 0.932 ± 0.081 | 0.887 ± 0.023 | 0.778 ± 0.045 | 0.684 ± 0.022 | 0.503 ± 0.045
[4], 72 h | 0.957 ± 0.018 | 1.02 ± 0.036 | 0.959 ± 0.093 | 0.909 ± 0.07 | 0.674 ± 0.043 | 0.539 ± 0.044 | 0.452 ± 0.015
[5], 48 h | 0.828 ± 0.1 | 1.18 ± 0.22 | 1.18 ± 0.28 | 1.07 ± 0.24 | 0.973 ± 0.22 | 0.71 ± 0.15 | 0.542 ± 0.099
[5], 72 h | 0.955 ± 0.11 | 0.88 ± 0.087 | 0.947 ± 0.13 | 0.922 ± 0.035 | 0.651 ± 0.048 | 0.491 ± 0.041 | 0.39 ± 0.032
[6], 24 h | 0.92 ± 0.085 | 0.969 ± 0.039 | 0.912 ± 0.045 | 1.06 ± 0.068 | 1.03 ± 0.026 | 0.987 ± 0.024 | 0.875 ± 0.053
[6], 48 h | 0.9247 ± 0.008 | 1 ± 0.044 | 1.01 ± 0.061 | 1 ± 0.044 | 1.06 ± 0.075 | 0.886 ± 0.012 | 0.719 ± 0.041
[6], 72 h | 1.06 ± 0.1 | 1.14 ± 0.079 | 1.17 ± 0.12 | 1.2 ± 0.13 | 1.06 ± 0.1 | 0.671 ± 0.058 | 0.42 ± 0.039

[2]
Conditions | relative viability
0.00316 µM | 0.969 ± 0.058
0.01 µM | 0.94 ± 0.22
0.0316 µM | 0.959 ± 0.17
0.1 µM | 0.96 ± 0.13
0.316 µM | 0.953 ± 0.11
1 µM | 0.95 ± 0.11
3.16 µM | 0.805 ± 0.1
